Consider 2 molecules from patent US12163953B2, “P-phenylene ethynylene compounds as bioactive and detection agents” (STC.UNM, priority 2014, dated 2024).

In data set [1] the target is T1, HEWL amyloids (Gallus gallus, UniProt P00698).
T1 construct: Lyophilized HEWL was dissolved at 10 mg/mL in 10 mM pH 3 sodium citrate buffer with 0.1 M NaCl; purchased Sigma-Aldrich; host or cells: hen egg white; fibrillised in house (pH 3, 70 °C, stirred)
The data set can be described thus: Excitation and emission spectra of PEs with HEWL amyloids. It is filed as binding, hen. As to conditions: PE 500 nM, HEWL amyloid 5 μM monomer basis. The method, then:
Excitation and emission spectra of PEs in phosphate buffer alone, with monomeric HEWL and with HEWL amyloids (8 h incubated) are shown in FIGS. 18A-H, and relevant photophysical properties are summarized in Table 1. FIGS. 18A-H illustrate excitation (A, B, C, D) and emission (right; E, F, G. H) spectra of PEs (A, E: PE1+; B, F: PE1−; C, G: PE2+; D, H: PE3+) in phosphate buffer (PB, pH 7.4, 10 mM) alone (long dashed line) with HEWL monomers (short dashed line) and with HEWL amyloids (solid line); PE concentration: 500 nM, protein concentration: 5 μM monomer basis/0.25 mg/mL; emission and excitation wavelengths, respectively, were chosen as shown in Table 1 for each sample. A 10:1 molar ratio of protein to PE was used for these experiments. Absorbance spectra were taken, but background light scattering from insoluble amyloid aggregates made them difficult to interpret, so “fluorescence detected absorbance” in the form of excitation spectra was used instead. Normalized excitation and emission spectra, in which peak shifts and lineshape changes of spectra were somewhat easier to visualize, were used. […] PE1+ (FIG. 18E) had no change in wavelength or lineshape of emission spectrum, just a large increase in intensity when mixed with amyloids. The excitation spectra (FIGS. 18A, B, C, D) show a notable bathochromic shift for each PE in solution mixed with amyloid, of 23, 27, 35 and 29 nm for PE1+, PE2+, PE3+ and PE1−, respectively, observing only the low-energy band. The high-energy band, less relevant for imaging purposes, was also bathochromically shifted. […] PE1− had similar excitation spectrum (FIG. 18B) with monomer and amyloid, except for a large intensity difference.
Lyophilized HEWL was dissolved at 10 mg/mL in 10 mM pH 3 sodium citrate buffer with 0.1 M NaCl. The solution was incubated in a 70C oil bath and magnetically stirred at 250 rpm for 12 h, and aliquots were withdrawn at half-hour intervals. […] Half of each aliquot was immediately diluted into pH 7.4 phosphate buffer to prevent further influence of acidic conditions and stored at 4C.
(§1) For studies of fluorescence enhancement vs. protein incubation time, dyes were mixed with protein sample in phosphate buffer (10 mM, pH 7.4) at equal monomer concentration of 10 μM in the wells of a standard 96-well plate. Emission spectra were obtained using top read with a SpectraMax M2e plate-reading spectrophotometer (Molecular Devices, Sunnyvale, CA). Experiments were performed in duplicate and errors are reported as standard deviation. For analysis of bound PE excitation and emission spectra and protein-PE energy transfer, PEs (500 nM) were mixed with protein sample (5 μM, monomer basis) in phosphate buffer and the solution transferred to a quartz, fluorometry cuvette. Spectra were obtained on a PTI QuantaMaster 40 steady state spectrofluorometer (HORIBA Scientific, Edison, NJ).

Data set [2] concerns the target T2, HEWL fibrils incubated for different lengths of time (Gallus gallus, UniProt P00698).
T2 construct: Lyophilized HEWL was dissolved at 10 mg/mL in 10 mM pH 3 sodium citrate buffer with 0.1 M NaCl; purchased Sigma-Aldrich; host or cells: hen egg white; fibrillised in house (pH 3, 70 °C, stirred)
The data set can be described thus: Fluorescence enhancement of dyes versus HEWL incubation time. It is filed as binding, hen. Conditions: dye 10 μM, HEWL 10 μM monomer basis. The method, then: Hen egg white lysozyme (HEWL) was used to form fibrillary amyloid aggregates for use in this study. […] For these experiments. HEWL (Sigma-Aldrich) was incubated at 70′C and a concentration of 350 μM in pH 3 sodium citrate buffer (10 mM) with 100 mM NaCl.
A plot of normalized fluorescence enhancement for all four PEs and Thioflavin T with HEWL fibrils incubated for different lengths of time is shown in FIG. 15. PE1+ and PE2+ track amyloid formation in roughly the same way as ThT, showing a sigmoidal curve with onset of a logarithmic growth phase occurring at the same time, around 1 hour of incubation. The plateau phase, as monitored by fluorescence of any of those three PEs or ThT, appeared at 2 hours incubation.
as §1

Data set [3] in a line: Absorbance/fluorescence spectroscopy and fluorescence quantum yield (comparative method) of PEs and PE/substrate aggregates. The class given is physicochemical.
For data set [4], the target named is T1, HEWL amyloids. Nature of the data set: HEWL to PE Förster resonance energy transfer. It is filed as binding, hen. As to conditions: excitation 280 nm.
From the text: The results are summarized as FRET efficiencies in FIG. 20, illustrating HEWL ? PE FRET efficiencies calculated from spectral data by the equation E=FA/(FD+FA) where FD is the integrated area under the donor emission peak, and FA is the integrated area under the acceptor emission peak. This simple expression is valid for this case since the PEs are nonfluorescent when excited at the donor excitation wavelength, eliminating crosstalk. Thus, FA is the total number of energy transfer events, and (FA+FD) is the total number of excitation events. Theoretically, the efficiencies should be convertible into distances by
as §1, with “Spectra were obtained on a PTI QuantaMaster 40 steady state spectrofluorometer (HORIBA Scientific, Edison, NJ).” left out

For data set [5] the following is noted: in water; cited from earlier work.

Bounds are passed on as bounds.

T1 sequence (P00698 19-147): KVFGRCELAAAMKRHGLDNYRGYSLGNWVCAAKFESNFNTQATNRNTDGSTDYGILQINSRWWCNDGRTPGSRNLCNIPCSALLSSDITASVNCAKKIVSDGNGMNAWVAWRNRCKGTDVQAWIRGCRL
T2 sequence (P00698 19-147): as above

On to `CCOC(=O)c1ccc(C#Cc2cc(OCC[N+](C)(C)C)c(C#Cc3ccc(C#Cc4cc(OCC[N+](C)(C)C)c(C#Cc5ccc(C#Cc6cc(OCC[N+](C)(C)C)c(C#Cc7ccc(C(=O)OCC)cc7)cc6OCC[N+](C)(C)C)cc5)cc4OCC[N+](C)(C)C)cc3)cc2OCC[N+](C)(C)C)cc1` [PE3+], for which, on HEWL amyloids [1], the “bathochromic shift of excitation spectrum, low-energy band, with amyloid” value was 35 nm; the “blueshifting of the fluorescence maximum with amyloid” value is ~10 nm; the “λem (PB w/ HEWL)” value came out at 453 nm; the “λex (PB w/HEWL), high-energy band” value stood at 335 nm. At HEWL amyloids [1], the “λex (PB w/HEWL), low-energy band” value was determined as 434 nm. The “HEWL incubation time at which the plateau phase of fluorescence enhancement appears” value in data set [2] is listed as “up to 3.5 hours”.

As to `CCOC(=O)c1ccc(C#Cc2cc(OCC[N+](C)(C)C)c(C#Cc3ccc(C#Cc4cc(OCC[N+](C)(C)C)c(C#Cc5ccc(C(=O)OCC)cc5)cc4OCC[N+](C)(C)C)cc3)cc2OCC[N+](C)(C)C)cc1` [PE2+], the “centre of structured emission upon aggregation with substrate” value in data set [3] (+2C with DLPG, −1C with LaCh) was 450 nm. The “fluorescence quantum yield of aggregate with DLPG” value in data set [3] ([…] PE with 16 uM DLPG) is 0.63. For the same molecule, the “fluorescence enhancement on aggregation with DLPG” value in data set [3] (at 440 nm) was 39 times. Also, the “fluorescence quantum yield, PE alone” value in data set [3] (in water, corrected value of this study) is recorded as ≤ 0.016. In addition, the “HEWL to PE FRET efficiency, relative” value at HEWL amyloids [4] was “highest efficiency”. Moreover, at HEWL amyloids [1], the “bathochromic shift of excitation spectrum, low-energy band, with amyloid” value was 27 nm; the “blueshifting of the fluorescence maximum with amyloid” value is reported as ~10 nm; the “λem (PB w/ HEWL)” value was found to be 445 nm; the “λex (PB w/HEWL), high-energy band” value was 337 nm. The “λex (PB w/HEWL), low-energy band” value at HEWL amyloids [1] is recorded as 426 nm. The “fluorescence quantum yield, previously reported value” in data set [5] is on record as 0.039. Moreover, the “HEWL incubation time at which the plateau phase of fluorescence enhancement appears” value in data set [2] was determined as 2 h.
